Like-named read-outs stand apart in the source and are kept apart here.
What was measured:
clinical = details: human, in vivo; for CL renal: CLR (urine); for Tmax: Tmax (plasma)
[1] = TEAEs by MedDRA class
Description: Safety assessments included monitoring of AEs, physical examinations, ECGs, orthostatic vital signs, and clinical laboratory evaluations.

[2] = human, in vivo, 1000 mg
[3] = Plasma PK of baxdrostat and baxdrostat-M in the metformin crossover study (Example 6A); assay type: in vivo, human; details: single 10-mg dose of baxdrostat; for AUC(0-t) / Cmax / Tmax: human
Method: This study was designed as a phase 1, randomized, open-label, 2-period, crossover trial. Each subject participated in a screening period of up to 26 days followed by 2 inpatient treatment periods and a follow-up phone call. […] Plasma samples were extracted by protein precipitation with methanol, followed by analysis by LC-MS/MS with ESI(+) and MRM. Reversed-phase chromatographic separation with a mobile phase gradient of 20% to 90% was utilized, and total run time was approximately 5 minutes. […] PK parameters were calculated using noncompartmental methods with SAS software, version 9.4 (SAS Institute). […] Tmax; […] AUC0-t; AUC0-inf, AUC0-inf extrapolated; λz; and t1/2. Plasma AUC0-72 was assessed only for baxdrostat and baxdrostat-M. […] Urine PK parameters included Ae, renal clearance (calculated as Ae/AUC), and the fraction of dose excreted renally.

[4] = Pharmacokinetics in subjects with varying degrees of renal function (Example 4); assay type: in vivo, human
Method: This phase 1, open-label, single-dose, parallel-group study was designed in accordance with the FDA guidance for the design and analysis of studies that assess the influence of impaired renal function on PK. Subjects were enrolled into three renal function groups defined based on eGFR calculated using the Chronic Kidney Disease Epidemiology Collaboration equation as follows: […]
Control(normal renal function or mild renal impairment:eGFR≥60 mL/min) • Moderate to severe renal impairment (eGFR 15 to 59 mL/min) • Kidney failure (eGFR<15 mL/min, including subjects on dialysis)
All subjects received a single 10 mg dose of baxdrostat in an open-label manner. […] All subjects were required to fast for a minimum of 10 hours prior to baxdrostat administration. They were then dosed at 8:00 AM (±2 hours) with two 5 mg tablets administered with approximately 240 mL of water. Subjects continued fasting for a minimum of 4 hours after dosing. No other medications were permitted within 2 hours prior to dosing and for 2 hours after dosing with baxdrostat. Subjects on dialysis received the study drug on a non-dialysis day. Blood and urine sample collection for PK analysis continued for 7 days and was proceeded by a follow-up phone call 3±1 days after clinic discharge.
Plasma and urine samples were analyzed to measure concentrations of baxdrostat and its primary metabolite (baxdrostat-M) using a validated LC-MS/MS method. “Baxdrostat-M” as used herein refers a compound having the following structure:
Blood and urine samples were collected prior to and after dosing for measurement of plasma and urine baxdrostat and baxdrostat-M concentrations to characterize maximum observed plasma concentration (Cmax), time to Cmax (Tmax), AUC0-last, and AUC0-inf for baxdrostat and baxdrostat-M. The t1/2, CL/F, and V/F were calculated for plasma baxdrostat only. Urine PK parameters included the cumulative amount of baxdrostat and baxdrostat-M excreted in urine (Ae), renal clearance (CLR) of baxdrostat and baxdrostat-M, and fraction of dose excreted renally (Fe) for baxdrostat.

[5] = PATHWAY-2 study; cited from earlier work

Structure (SMILES): CN(C)C(=N)N=C(N)N [Metformin, metformin]
- CL renal (clinical; 1000 mg, GM): 460 mL/min
- CL renal (clinical; 1000 mg, Mean): 466 mL/min
- Tmax (clinical; 1000 mg, Mean (SD)): 2.14 h
- CL renal (clinical; GM): 430 mL/min
- CL renal (clinical; Mean): 441 mL/min
- Tmax (clinical; GM (CV %)): 1.92 h
- Tmax (clinical; Mean (SD)): 2.04 h
- Abdominal pain upper, No. (%) [1]: 1 (3.8) No. (%)
- Burns first degree, No. (%) [1]: 1 (3.8) No. (%)
- Diarrhea, No. (%) [1]: 3 (11.5) No. (%)
- Dizziness postural, No. (%) [1]: 0 (0.0) No. (%)
- Flatulence, No. (%) [1]: 0 (0.0) No. (%)
- Gastrointestinal disorders, No. (%) [1]: 4 (15.4) No. (%)
- General disorders and administration site conditions, No. (%) [1]: 0 (0.0) No. (%)
- Injury, poisoning, and procedural complications, No. (%) [1]: 1 (3.8) No. (%)
- Nausea, No. (%) [1]: 1 (3.8) No. (%)
- Nervous system disorders, No. (%) [1]: 0 (0.0) No. (%)
- Presyncope, No. (%) [1]: 0 (0.0) No. (%)
- Vessel puncture site pain, No. (%) [1]: 0 (0.0) No. (%)
- Diarrhea, No. (%) ([1]; listed as metformin): 3 (11.5%) No. (%)
- AUC0-inf (plasma), GM [2]: 11,087.78 h · ng/mL
- AUC0-inf (plasma), Mean [2]: 11,224.76 h · ng/mL
- AUC0-t (plasma), GM [2]: 11,024.21 h · ng/mL
- AUC0-t (plasma), Mean [2]: 11,158.75 h · ng/mL
- Cmax (plasma), GM [2]: 1732.62 ng/mL
- Cmax (plasma), Mean [2]: 1765.39 ng/mL

Structure (SMILES): CN1C(=O)CCc2cc(-c3cncc4c3CCCC4O)ccc21 (stereo not drawn) [baxdrostat-M]
- AUC(0-t) ([3]; read-out: AUC0-24, GM): 103 ng·h/mL
- AUC(0-t) ([3]; read-out: AUC0-24, Mean): 111 ng·h/mL
- AUC(0-t) ([3]; read-out: AUC0-72, GM): 248 ng·h/mL
- AUC(0-t) ([3]; read-out: AUC0-72, Mean): 264 ng·h/mL
- Cmax ([3]; read-out: Cmax, GM): 6.16 ng/mL
- Cmax ([3]; read-out: Cmax, Mean): 6.72 ng/mL
- Tmax ([3]; read-out: Tmax, GM): 12.4 h
- Tmax ([3]; read-out: Tmax, Mean): 15.7 h
- λz, GM [3]: 0.030 h⁻¹
- λz, Mean [3]: 0.030 h⁻¹
- Tmax ([4]; human, plasma, oral, 10 mg, all renal function groups, after single 10 mg baxdrostat, read-out: Tmax): ~22 h
- plasma concentration-time curves vs control ([4]; moderate to severe renal impairment and kidney failure groups): qualitatively similar to the control group

Structure (SMILES): CC(=O)S[C@@H]1CC2=CC(=O)CC[C@]2(C)[C@H]2CC[C@@]3(C)[C@@H](CC[C@@]34CCC(=O)O4)[C@H]12 [spironolactone]
- rate of hyperkalemia [5]: 2.1%
